Assay results from ChEMBL document CHEMBL1201862, “PubChem BioAssay data set” (2004).
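Step 1: Grow cells in 96-well plates. Step 2: Expose to compound for 48 hours at 5 concentrations. Step 3: Interpolate endpoints linearly; if unreached, use highest concentration. GI50 marks 50% less growth.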 Active and inactive are the calls of the source. Rule as the data show it: active = GI50 up to about 1.1 µM and inactive = higher.

Columns and labels:
Experiment in all cases: DTP human tumour cell line panel, 48 h
786-0 = system: 786-0
A498 = system: A498
A549 = system: A549
EKVX = system: EKVX
HCT-15 = system: HCT-15
HL-60 = system: HL-60
HOP-92 = system: HOP-92
Hs-578T = system: Hs-578T
M14 = system: M14
NCI/ADR-RES = system: NCI/ADR-RES
OVCAR-4 = system: OVCAR-4
SF-268 = system: SF-268
SF-295 = system: SF-295
SF-539 = system: SF-539
SK-MEL-5 = system: SK-MEL-5
SNB-75 = system: SNB-75
SR = system: SR
U-251 = system: U-251
UO-31 = system: UO-31
Malme-3M = system: Malme-3M

| Compound | GI50 (786-0) | GI50 (A498) | GI50 (A549) | GI50 (EKVX) | GI50 (HCT-15) [µM] | GI50 (HL-60) | GI50 (HOP-92) | GI50 (Hs-578T) | GI50 (M14) | GI50 (NCI/ADR-RES) | GI50 (OVCAR-4) | GI50 (SF-268) | GI50 (SF-295) | GI50 (SF-539) | GI50 (SK-MEL-5) | GI50 (SNB-75) | GI50 (SR) | GI50 (U-251) | GI50 (UO-31) | GI50 (Malme-3M) |
| --- | --- | --- | --- | --- | --- | --- | --- | --- | --- | --- | --- | --- | --- | --- | --- | --- | --- | --- | --- | --- |
| O=c1c2cc(I)ccc2nc(SCc2nncs2)n1Cc1ccccc1 | 15 µM (inactive) | 19.7 µM (inactive) | 22.9 µM (inactive) | 7 µM (inactive) | 50.2 | 22.1 µM (inactive) | 3.34 µM (inactive) | 16.3 µM (inactive) | 9.06 µM (inactive) | > 100 µM (inactive) | 12.6 µM (inactive) | 14.1 µM (inactive) | 13.2 µM (inactive) | 22.8 µM (inactive) | 6.71 µM (inactive) | 19.1 µM (inactive) | 15.4 µM (inactive) | 16.9 µM (inactive) | 1.17 µM (inactive) |  |
| NC(CC1=CS(=O)(=O)c2ccc(Cl)cc21)C(=O)O (stereo not given) | > 100 µM (inactive) | > 100 µM (inactive) | > 100 µM (inactive) | > 100 µM (inactive) | > 100 |  | > 100 µM (inactive) | 70.5 µM (inactive) | > 100 µM (inactive) | > 100 µM (inactive) | > 100 µM (inactive) | > 100 µM (inactive) | 83.6 µM (inactive) | > 100 µM (inactive) | > 100 µM (inactive) | 20.6 µM (inactive) | > 100 µM (inactive) | > 100 µM (inactive) |  | 76.7 µM (inactive) |
| Cc1cccc(C(C)O)n1 (stereo not given) | > 100 µM (inactive) | > 100 µM (inactive) | > 100 µM (inactive) | > 100 µM (inactive) | > 100 | > 100 µM (inactive) |  | > 100 µM (inactive) | > 100 µM (inactive) | > 100 µM (inactive) | > 100 µM (inactive) | > 100 µM (inactive) | > 100 µM (inactive) | > 100 µM (inactive) | > 100 µM (inactive) | > 100 µM (inactive) | > 100 µM (inactive) | > 100 µM (inactive) | > 100 µM (inactive) | 24 µM (inactive) |
| COc1cc(C2S/C(=C/c3ccccc3)C(=O)N2c2ccccn2)cc(OC)c1OC (stereo not given) | 14.3 µM (inactive) | 13.2 µM (inactive) | 18.5 µM (inactive) | 24.4 µM (inactive) | 12.8 | 12.4 µM (inactive) | 8.3 µM (inactive) | 20.2 µM (inactive) | 15.1 µM (inactive) | 19.5 µM (inactive) | 19.2 µM (inactive) | 15.2 µM (inactive) | 24.5 µM (inactive) |  | 20.2 µM (inactive) | 6.87 µM (inactive) | 3.02 µM (inactive) | 10.2 µM (inactive) | 13.5 µM (inactive) | 13.4 µM (inactive) |
| O=C(O)CCCCn1ccc(=O)[nH]c1=O | > 100 µM (inactive) | > 100 µM (inactive) | > 100 µM (inactive) | > 100 µM (inactive) | > 100 | > 100 µM (inactive) |  | > 100 µM (inactive) | > 100 µM (inactive) | > 100 µM (inactive) | > 100 µM (inactive) | > 100 µM (inactive) | > 100 µM (inactive) | > 100 µM (inactive) | > 100 µM (inactive) | > 100 µM (inactive) | > 100 µM (inactive) | > 100 µM (inactive) | > 100 µM (inactive) | > 100 µM (inactive) |
| O=C(O)[C@@]1(Cc2ccc(O)cc2)C[C@@H]2Cc3ccccc3N2N1 | > 100 µM (inactive) | > 100 µM (inactive) | > 100 µM (inactive) | > 100 µM (inactive) | > 100 | > 100 µM (inactive) | > 100 µM (inactive) | > 100 µM (inactive) | > 100 µM (inactive) | > 100 µM (inactive) | > 100 µM (inactive) | > 100 µM (inactive) | > 100 µM (inactive) | > 100 µM (inactive) | > 100 µM (inactive) |  | > 100 µM (inactive) | > 100 µM (inactive) | > 100 µM (inactive) | > 100 µM (inactive) |
| CN1C(=S)C(c2ccccc2)Sc2ccccc21 (stereo not given) | > 100 µM (inactive) |  | 84.3 µM (inactive) | 14 µM (inactive) | 52.1 | 87.5 µM (inactive) |  | 35.6 µM (inactive) | > 100 µM (inactive) | > 100 µM (inactive) | > 100 µM (inactive) | > 100 µM (inactive) | 17.4 µM (inactive) |  | 34.8 µM (inactive) | 35.7 µM (inactive) | 64.4 µM (inactive) | > 100 µM (inactive) | 35.6 µM (inactive) | 97.7 µM (inactive) |
